{"source": "paper PMC3703859", "about": "(Neuropharmacology, 2010)", "molecules": {"B1": {"name": "wild type human DAT (Homo sapiens) (protein)", "chain": "MSKSKCSVGLMSSVVAPAKEPNAVGPKEVELILVKEQNGVQLTSSTLTNPRQSPVEAQDRETWGKKIDFLLSVIGFAVDLANVWRFPYLCYKNGGGAFLVPYLLFMVIAGMPLFYMELALGQFNREGAAGVWKICPILKGVGFTVILISLYVGFFYNVIIAWALHYLFSSFTTELPWIHCNNSWNSPNCSDAHPGDSSGDSSGLNDTFGTTPAAEYFERGVLHLHQSHGIDDLGPPRWQLTACLVLVIVLLYFSLWKGVKTSGKVVWITATMPYVVLTALLLRGVTLPGAIDGIRAYLSVDFYRLCEASVWIDAATQVCFSLGVGFGVLIAFSSYNKFTNNCYRDAIVTTSINSLTSFSSGFVVFSFLGYMAQKHSVPIGDVAKDGPGLIFIIYPEAIATLPLSSAWAVVFFIMLLTLGIDSAMGGMESVITGLIDEFQLLHRHRELFTLFIVLATFLLSLFCVTNGGIYVFTLLDHFAAGTSILFGVLIEAIGVAWFYGVGQFSDDIQQMTGQRPSLYWRLCWKLVSPCFLLFVVVVSIVTFRPPHYGAYIFPDWANALGWVIATSSMAMVPIYAAYKFCSLPGSFREKLAYAIAPEKDRELVDRGEVRQFTLRHWLKV"}, "B2": {"name": "human DAT V152A (Homo sapiens; V152A) (protein)", "chain": "B1 chain with V152A"}, "B3": {"name": "human DAT A479V/A480V (Homo sapiens; A479V/A480V) (protein)", "chain": "B1 chain with A479V, A480V"}, "B4": {"name": "human DAT N157A (Homo sapiens; N157A) (protein)", "chain": "B1 chain with N157A"}, "B5": {"name": "human DAT V152I (Homo sapiens; V152I) (protein)", "chain": "B1 chain with V152I"}, "B6": {"name": "human DAT N157C (Homo sapiens; N157C) (protein)", "chain": "B1 chain with N157C"}, "B7": {"name": "human DAT S422A (Homo sapiens; S422A) (protein)", "chain": "B1 chain with S422A"}}, "key": {"[1]": {"molecular_target": "T1, human DAT V152I (Homo sapiens, UniProt Q01959, V152I)", "T1 sequence (Q01959 whole entry V152I)": "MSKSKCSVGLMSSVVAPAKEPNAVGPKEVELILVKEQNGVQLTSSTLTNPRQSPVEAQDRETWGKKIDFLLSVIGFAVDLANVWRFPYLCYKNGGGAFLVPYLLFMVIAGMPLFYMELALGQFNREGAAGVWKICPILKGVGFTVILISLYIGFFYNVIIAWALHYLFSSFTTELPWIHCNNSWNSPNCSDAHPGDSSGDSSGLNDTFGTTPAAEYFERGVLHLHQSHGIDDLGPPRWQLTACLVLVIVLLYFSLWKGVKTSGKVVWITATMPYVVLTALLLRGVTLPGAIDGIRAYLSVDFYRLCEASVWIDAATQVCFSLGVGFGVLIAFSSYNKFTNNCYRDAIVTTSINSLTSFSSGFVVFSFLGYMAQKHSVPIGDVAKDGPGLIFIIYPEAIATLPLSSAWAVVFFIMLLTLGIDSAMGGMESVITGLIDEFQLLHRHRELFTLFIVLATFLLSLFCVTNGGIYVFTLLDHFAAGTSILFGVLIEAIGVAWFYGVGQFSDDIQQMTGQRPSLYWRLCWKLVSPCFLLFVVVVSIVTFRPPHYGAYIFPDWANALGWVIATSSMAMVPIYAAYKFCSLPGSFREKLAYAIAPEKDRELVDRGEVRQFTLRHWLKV", "experiment": "[^3H]CFT binding on intact transfected COS7 cells", "conditions": "for reduction in apparent affinity in [^3H]CFT competition binding versus wild type: V152I vs WT"}, "[2]": {"molecular_target": "T2, human DAT V152A (Homo sapiens, UniProt Q01959, V152A)", "T2 sequence (Q01959 whole entry V152A)": "as the sequence (Q01959 whole entry V152I) above, with I152A counted along it", "experiment": "[^3H]CFT binding on intact transfected COS7 cells", "conditions": "for reduction in apparent affinity in [^3H]CFT competition binding versus wild type: V152A vs WT"}, "[3]": {"molecular_target": "T2, human DAT V152A", "experiment": "[^3H]dopamine uptake in transfected COS7 cells", "assay_type": "cell-based", "conditions": "for decrease in potency in inhibition of [^3H]dopamine uptake versus wild type: V152A vs WT"}, "[4]": {"molecular_target": "T1, human DAT V152I", "experiment": "[^3H]dopamine uptake in transfected COS7 cells", "assay_type": "cell-based", "conditions": "for decrease in potency in inhibition of [^3H]dopamine uptake versus wild type: V152I vs WT"}, "[5]": {"molecular_target": "human DAT N157A (Homo sapiens, UniProt Q01959, N157A)", "sequence (Q01959 whole entry N157A)": "as the sequence (Q01959 whole entry V152I) above, with I152V, N157A counted along it", "experiment": "[^3H]dopamine uptake in transfected COS7 cells", "assay_type": "cell-based"}, "[6]": {"molecular_target": "T3, human DAT A479V/A480V (Homo sapiens, UniProt Q01959, A479V/A480V)", "T3 sequence (Q01959 whole entry A479V/A480V)": "as the sequence (Q01959 whole entry V152I) above, with I152V, A479V, A480V counted along it", "experiment": "[^3H]dopamine uptake in transfected COS7 cells", "assay_type": "cell-based"}, "[7]": {"molecular_target": "human DAT N157C (Homo sapiens, UniProt Q01959, N157C)", "sequence (Q01959 whole entry N157C)": "as the sequence (Q01959 whole entry V152I) above, with I152V, N157C counted along it", "experiment": "[^3H]dopamine uptake in transfected COS7 cells", "assay_type": "cell-based"}, "[8]": {"molecular_target": "human DAT S422A (Homo sapiens, UniProt Q01959, S422A)", "sequence (Q01959 whole entry S422A)": "as the sequence (Q01959 whole entry V152I) above, with I152V, S422A counted along it", "experiment": "[^3H]dopamine uptake in transfected COS7 cells", "assay_type": "cell-based"}, "[9]": {"molecular_target": "T4, wild type human DAT (Homo sapiens, UniProt Q01959)", "experiment": "[^3H]dopamine uptake in transfected COS7 cells", "assay_type": "cell-based", "conditions": "WT DAT"}, "[10]": {"molecular_target": "T4, wild type human DAT", "experiment": "[^3H]CFT binding on intact transfected COS7 cells", "conditions": "WT DAT"}, "[11]": {"molecular_target": "T3, human DAT A479V/A480V", "experiment": "[^3H]CFT binding on intact transfected COS7 cells"}, "[12]": {"substrate": "NCCc1ccc(O)c(O)c1", "experiment": "cells, lysate or membranes", "conditions": "COS7 cells, 5 min uptake at room temperature, pH 7.4"}}, "note": "Where a chain is given by its changes, count along the chain named. Numbers in names are those of the source.", "data": [{"molecule": "CN1[C@@H]2CC[C@H]1C[C@@H](OC(c1ccccc1)c1ccccc1)C2", "note": "[BZT, benztropine]", "values": [{"measurement": "reduction in apparent affinity in [^3H]CFT competition binding versus wild type", "setting": "[1]", "value": "~ 15 fold"}, {"measurement": "reduction in apparent affinity in [^3H]CFT competition binding versus wild type", "setting": "[2]", "value": "~ 15 fold"}, {"measurement": "decrease in potency in inhibition of [^3H]dopamine uptake versus wild type", "setting": "[3]", "value": "~ 3 fold"}, {"measurement": "decrease in potency in inhibition of [^3H]dopamine uptake versus wild type", "setting": "[4]", "value": "no change"}]}, {"molecule": "NCCc1ccc(O)c(O)c1", "note": "[[^3H]Dopamine, 3,4-[Ring-2,5,6-^3H]-dihydroxyphenylethylamine]", "values": [{"measurement": "Vmax ± S.E. of [^3H]dopamine uptake", "setting": "[3]; V152A, COS7 cells", "value": "614 ± 167", "unit": "fmol/min/10^5 cells"}, {"measurement": "Vmax ± S.E. of [^3H]dopamine uptake", "setting": "[5]", "value": "598 ± 179", "unit": "fmol/min/10^5 cells"}, {"measurement": "Vmax ± S.E. of [^3H]dopamine uptake", "setting": "[4]; V152I, COS7 cells", "value": "242 ± 37", "unit": "fmol/min/10^5 cells"}, {"measurement": "Vmax ± S.E. of [^3H]dopamine uptake", "setting": "[6]", "value": "2231 ± 157", "unit": "fmol/min/10^5 cells"}, {"measurement": "Vmax ± S.E. of [^3H]dopamine uptake", "setting": "[7]", "value": "1768 ± 159", "unit": "fmol/min/10^5 cells"}, {"measurement": "increase in Km value for [^3H]dopamine uptake versus wild type", "setting": "[8]; S422A vs WT", "value": "~ 4 fold"}, {"measurement": "Vmax ± S.E. of [^3H]dopamine uptake", "setting": "[8]; S422A, COS7 cells", "value": "320 ± 40", "unit": "fmol/min/10^5 cells"}, {"measurement": "Vmax ± S.E. of [^3H]dopamine uptake", "setting": "[9]", "value": "5275 ± 555", "unit": "fmol/min/10^5 cells"}]}, {"molecule": "CCCCN1[C@@H]2CC[C@H]1CC(OC(c1ccc(F)cc1)c1ccc(F)cc1)C2", "note": "(stereo partly drawn) [JHW007]", "values": [{"measurement": "reduction in apparent affinity in [^3H]CFT competition binding versus wild type", "setting": "[1]", "value": "10–20 fold"}, {"measurement": "reduction in apparent affinity in [^3H]CFT competition binding versus wild type", "setting": "[2]", "value": "10–20 fold"}, {"measurement": "decrease in potency in inhibition of [^3H]dopamine uptake versus wild type", "setting": "[3]", "value": "~ 2 fold"}, {"measurement": "decrease in potency in inhibition of [^3H]dopamine uptake versus wild type", "setting": "[4]", "value": "~ 6 fold"}]}, {"molecule": "COC(=O)[C@H]1[C@@H](c2ccc(F)cc2)C[C@@H]2CC[C@H]1N2C", "note": "[CFT, (−)-2β-carbomethoxy-3β-(4-fluorophenyl)tropane]", "values": [{"measurement": "Bmax ± S.E. of [^3H]CFT binding", "setting": "[1]; V152I, intact COS7 cells", "value": "215 ± 58", "unit": "fmol/10^5 cells"}, {"measurement": "Bmax ± S.E. of [^3H]CFT binding", "setting": "[10]", "value": "386 ± 89", "unit": "fmol/10^5 cells"}, {"measurement": "Bmax ± S.E. of [^3H]CFT binding", "setting": "[2]; V152A, intact COS7 cells", "value": "380 ± 99", "unit": "fmol/10^5 cells"}, {"measurement": "Bmax ± S.E. of [^3H]CFT binding", "setting": "[11]", "value": "310 ± 44", "unit": "fmol/10^5 cells"}]}, {"molecule": "B1", "values": [{"measurement": "Km", "setting": "[12]; other: WT DAT", "value": "986 [861–1130] nM"}]}, {"molecule": "B2", "values": [{"measurement": "Km", "setting": "[12]; other: V152A", "value": "3090 [2310–4130] nM"}]}, {"molecule": "B3", "values": [{"measurement": "Km", "setting": "[12]; other: A479V/A480V", "value": "1620 [1350–1940] nM"}]}, {"molecule": "B4", "values": [{"measurement": "Km", "setting": "[12]; other: N157A", "value": "3240 [2720–3870] nM"}]}, {"molecule": "B5", "values": [{"measurement": "Km", "setting": "[12]; other: V152I", "value": "4370 [3180–6010] nM"}]}, {"molecule": "B6", "values": [{"measurement": "Km", "setting": "[12]; other: N157C", "value": "2710 [2170–3380] nM"}]}, {"molecule": "B7", "values": [{"measurement": "Km", "setting": "[12]; other: S422A", "value": "3950 [3730–4190] nM"}]}]}
